{"source": "paper PMC9516332", "about": "(Frontiers in Oncology, 2022)", "system": "134 cancer cell lines", "assay": "Cell viability assay (ATPlite, 72 hours), IC50 on cancer cell line panel", "note": "Like-named read-outs stand apart in the source and are kept apart here."}
{"smiles": "CCc1cc2c(cc1N1CCC(N3CCOCC3)CC1)C(C)(C)c1[nH]c3cc(C#N)ccc3c1C2=O", "note": "[alectinib]", "values": [{"measurement": "IC50", "setting": "Homo sapiens, LoVo, read-out: IC50 in cell proliferation assay", "value": "> 10", "unit": "µM"}, {"measurement": "IC50", "setting": "Homo sapiens, MCF7, read-out: IC50 in cell proliferation assay", "value": "> 10", "unit": "µM"}, {"measurement": "IC50", "setting": "Homo sapiens, MDA-MB-231, read-out: IC50 in cell proliferation assay", "value": "> 10", "unit": "µM"}, {"measurement": "IC50", "setting": "Homo sapiens, MDA-MB-453, read-out: IC50 in cell proliferation assay", "value": "> 10", "unit": "µM"}, {"measurement": "IC50", "setting": "Homo sapiens, MDA-MB-468, read-out: IC50 in cell proliferation assay", "value": "> 10", "unit": "µM"}, {"measurement": "IC50", "setting": "Homo sapiens, MG-63, read-out: IC50 in cell proliferation assay", "value": "> 10", "unit": "µM"}, {"measurement": "IC50", "setting": "Homo sapiens, MIA PaCa-2, read-out: IC50 in cell proliferation assay", "value": "> 10", "unit": "µM"}, {"measurement": "IC50", "setting": "Homo sapiens, MKN-45, read-out: IC50 in cell proliferation assay", "value": "> 10", "unit": "µM"}, {"measurement": "IC50", "setting": "Homo sapiens, MOLM-13, read-out: IC50 in cell proliferation assay", "value": 0.99, "unit": "µM"}, {"measurement": "IC50", "setting": "Homo sapiens, MOLT-4, read-out: IC50 in cell proliferation assay", "value": "> 10", "unit": "µM"}, {"measurement": "IC50", "setting": "Homo sapiens, MV4-11, read-out: IC50 in cell proliferation assay", "value": 1.07, "unit": "µM"}, {"measurement": "IC50", "setting": "Homo sapiens, MeWo, read-out: IC50 in cell proliferation assay", "value": "> 10", "unit": "µM"}, {"measurement": "IC50", "setting": "Homo sapiens, NCCIT, read-out: IC50 in cell proliferation assay", "value": "> 3.16", "unit": "µM"}, {"measurement": "IC50", "setting": "Homo sapiens, NCI-H82, read-out: IC50 in cell proliferation assay", "value": "> 10", "unit": "µM"}, {"measurement": "IC50", "setting": "Homo sapiens, NCI-H460, read-out: IC50 in cell proliferation assay", "value": "> 10", "unit": "µM"}, {"measurement": "IC50", "setting": "Homo sapiens, NCI-H661, read-out: IC50 in cell proliferation assay", "value": "> 10", "unit": "µM"}, {"measurement": "IC50", "setting": "Homo sapiens, NCI-H716, read-out: IC50 in cell proliferation assay", "value": 2.51, "unit": "µM"}, {"measurement": "IC50", "setting": "Homo sapiens, NCI-H1650, read-out: IC50 in cell proliferation assay", "value": 1.66, "unit": "µM"}, {"measurement": "IC50", "setting": "Homo sapiens, NCI-H1975, read-out: IC50 in cell proliferation assay", "value": 0.743, "unit": "µM"}, {"measurement": "IC50", "setting": "Homo sapiens, NCI-H2228, read-out: IC50 in cell proliferation assay", "value": 0.039, "unit": "µM"}, {"measurement": "IC50", "setting": "Homo sapiens, OVCAR-3, read-out: IC50 in cell proliferation assay", "value": "> 10", "unit": "µM"}, {"measurement": "IC50", "setting": "Homo sapiens, PFSK-1, read-out: IC50 in cell proliferation assay", "value": 3.48, "unit": "µM"}, {"measurement": "IC50", "setting": "Homo sapiens, RL95-2, read-out: IC50 in cell proliferation assay", "value": 1.33, "unit": "µM"}, {"measurement": "IC50", "setting": "Homo sapiens, RPMI-7951, read-out: IC50 in cell proliferation assay", "value": "> 10", "unit": "µM"}, {"measurement": "IC50", "setting": "Homo sapiens, RS4-11, read-out: IC50 in cell proliferation assay", "value": "> 10", "unit": "µM"}, {"measurement": "IC50", "setting": "Homo sapiens, Rec1, read-out: IC50 in cell proliferation assay", "value": 1.24, "unit": "µM"}, {"measurement": "IC50", "setting": "Homo sapiens, SHP77, read-out: IC50 in cell proliferation assay", "value": "> 10", "unit": "µM"}, {"measurement": "IC50", "setting": "Homo sapiens, SK-BR-3, read-out: IC50 in cell proliferation assay", "value": "> 10", "unit": "µM"}, {"measurement": "IC50", "setting": "Homo sapiens, SK-N-AS, read-out: IC50 in cell proliferation assay", "value": 7.73, "unit": "µM"}, {"measurement": "IC50", "setting": "Homo sapiens, SK-N-FI, read-out: IC50 in cell proliferation assay", "value": 7.44, "unit": "µM"}, {"measurement": "IC50", "setting": "Homo sapiens, SK-N-MC, read-out: IC50 in cell proliferation assay", "value": "> 10", "unit": "µM"}, {"measurement": "IC50", "setting": "Homo sapiens, SK-N-SH, read-out: IC50 in cell proliferation assay", "value": 2.43, "unit": "µM"}, {"measurement": "IC50", "setting": "Homo sapiens, SNU-5, read-out: IC50 in cell proliferation assay", "value": "> 10", "unit": "µM"}, {"measurement": "IC50", "setting": "Homo sapiens, SNU-16, read-out: IC50 in cell proliferation assay", "value": "> 10", "unit": "µM"}, {"measurement": "IC50", "setting": "Homo sapiens, SNU-C2B, read-out: IC50 in cell proliferation assay", "value": "> 10", "unit": "µM"}, {"measurement": "IC50", "setting": "Homo sapiens, SU-DHL-1, read-out: IC50 in cell proliferation assay", "value": 0.432, "unit": "µM"}, {"measurement": "IC50", "setting": "Homo sapiens, SU-DHL-6, read-out: IC50 in cell proliferation assay", "value": "> 10", "unit": "µM"}, {"measurement": "IC50", "setting": "Homo sapiens, SUP-T1, read-out: IC50 in cell proliferation assay", "value": "> 10", "unit": "µM"}, {"measurement": "IC50", "setting": "Homo sapiens, SW48, read-out: IC50 in cell proliferation assay", "value": "> 10", "unit": "µM"}, {"measurement": "IC50", "setting": "Homo sapiens, SW480, read-out: IC50 in cell proliferation assay", "value": "> 10", "unit": "µM"}, {"measurement": "IC50", "setting": "Homo sapiens, SW626, read-out: IC50 in cell proliferation assay", "value": "> 10", "unit": "µM"}, {"measurement": "IC50", "setting": "Homo sapiens, SW780, read-out: IC50 in cell proliferation assay", "value": 1.67, "unit": "µM"}, {"measurement": "IC50", "setting": "Homo sapiens, SW837, read-out: IC50 in cell proliferation assay", "value": "> 10", "unit": "µM"}, {"measurement": "IC50", "setting": "Homo sapiens, SW872, read-out: IC50 in cell proliferation assay", "value": "> 10", "unit": "µM"}, {"measurement": "IC50", "setting": "Homo sapiens, SW900, read-out: IC50 in cell proliferation assay", "value": "> 10", "unit": "µM"}, {"measurement": "IC50", "setting": "Homo sapiens, SW948, read-out: IC50 in cell proliferation assay", "value": "> 10", "unit": "µM"}, {"measurement": "IC50", "setting": "Homo sapiens, SW982, read-out: IC50 in cell proliferation assay", "value": "> 10", "unit": "µM"}, {"measurement": "IC50", "setting": "Homo sapiens, SW-620, read-out: IC50 in cell proliferation assay", "value": "> 10", "unit": "µM"}, {"measurement": "IC50", "setting": "Homo sapiens, T98G, read-out: IC50 in cell proliferation assay", "value": "> 10", "unit": "µM"}, {"measurement": "IC50", "setting": "Homo sapiens, TCC-SUP, read-out: IC50 in cell proliferation assay", "value": 3.7, "unit": "µM"}, {"measurement": "IC50", "setting": "Homo sapiens, THP-1, read-out: IC50 in cell proliferation assay", "value": "> 10", "unit": "µM"}, {"measurement": "IC50", "setting": "Homo sapiens, U2OS, read-out: IC50 in cell proliferation assay", "value": 3.79, "unit": "µM"}, {"measurement": "IC50", "setting": "Homo sapiens, U-87 MG, read-out: IC50 in cell proliferation assay", "value": 3.1, "unit": "µM"}, {"measurement": "IC50", "setting": "Homo sapiens, U-118-MG, read-out: IC50 in cell proliferation assay", "value": 3.33, "unit": "µM"}, {"measurement": "IC50", "setting": "Homo sapiens, UMUC3, read-out: IC50 in cell proliferation assay", "value": 3.3, "unit": "µM"}, {"measurement": "IC50", "setting": "Hs766T, read-out: IC50 in cell proliferation assay", "value": "> 10", "unit": "µM"}, {"measurement": "IC50", "setting": "L-82, read-out: IC50 in cell proliferation assay", "value": 0.037, "unit": "µM"}, {"measurement": "IC50", "setting": "Rh30, read-out: IC50 in cell proliferation assay", "value": "> 10", "unit": "µM"}]}
